Results on 13 compounds are retold here after ChEMBL document CHEMBL2016442, “Structure-activity studies of some berberine analogs as inhibitors of Toxoplasma gondii” (Bioorg Med Chem Lett, 2012).

Series [1] relates to Toxoplasma gondii. Kind of series: Antiparasitic activity against Toxoplasma gondii ATCC 50839 infected in human fibroblasts assessed as inhibition of replication of tachyzoites after 4 days by bacterial beta-galactosidase assay. The settings on record: ATCC 50839, 96 h, read-out: ID50 (the source's name). The series is classed as functional.
Series [2] is described as follows: Cytotoxicity against human fibroblasts assessed as cell viability by microplate reader. The settings on record: read-out: TD50 (the source's name). The series is classed as cell-based, Fibroblast.
A short description of series [3]: Therapeutic index, ratio of TD50 for human fibroblast cell to ID 50 for Toxoplasma gondii ATCC 50839. The series is classed as cell-based. The settings on record: human fibroblast cells, read-out: TI.
For series [4], the system named is Toxoplasma gondii. Kind of series: Ratio of trimethoprim ID50 to compound ID50 for Toxoplasma gondii ATCC 50839. The format is functional.

Consider `CCCC(=O)Oc1c(OC)ccc2cc3[n+](cc12)CCc1cc2c(cc1-3)OCO2`, for which, in series [1], the IC50 turned out to be 0.068 µM. Further, the CC50 in series [2] is 135 µM. Also, in series [3], the selectivity ratio worked out at 2000.
In the same order, the values of `COc1ccc2c(c1OC)C(C)N1CCc3cc4c(cc3C1=C2)OCO4` (stereo not given) are 4.2 µM, 12 µM and 3.
As to `CCOc1c(OC)ccc2cc3[n+](cc12)CCc1cc2c(cc1-3)OCO2`, the IC50 in series [1] turned out to be 0.83 µM. Further, in series [2], the CC50 worked out at 9.6 µM. Moreover, the selectivity ratio in series [3] was found to be 12.
With `CCCCCOc1c(OC)ccc2cc3[n+](cc12)CCc1cc2c(cc1-3)OCO2`, in series [1], the IC50 came out at 1.8 µM. In addition, the CC50 in series [2] was determined as 5.9 µM. Besides, the selectivity ratio in series [3] turned out to be 3.
On to `CCCCCCCOc1c(OC)ccc2cc3[n+](cc12)CCc1cc2c(cc1-3)OCO2`, for which the IC50 in series [1] was found to be 0.2 µM. For the same compound, the CC50 in series [2] was 1.1 µM. Further, in series [3], the selectivity ratio came to 5.5.
With `COc1ccc2cc3[n+](cc2c1OC(C)=O)CCc1cc2c(cc1-3)OCO2`, the IC50 in series [1] amounted to 0.075 µM. The CC50 in series [2] came to 45 µM. Besides, the selectivity ratio in series [3] was 600.
On to `CCCCCC(=O)Oc1c(OC)ccc2cc3[n+](cc12)CCc1cc2c(cc1-3)OCO2`, for which, in series [1], the IC50 came to 0.036 µM. In series [2], the CC50 was determined as 145 µM. Besides, in series [3], the selectivity ratio is 4000.
Turning to `COc1ccc2cc3[n+](cc2c1OC)CCc1cc2c(cc1-3)OCO2` [BERBERINE], the IC50 in series [1] is 0.58 µM. Moreover, in series [2], the CC50 was found to be 0.85 µM. Also, in series [3], the selectivity ratio came to 1.5. Further, in series [4], the Ratio is listed as 30.
`COc1ccc2cc3[n+](cc2c1O)CCc1cc2c(cc1-3)OCO2` [BERBERRUBINE]: the IC50 in series [1] was 0.06 µM. The CC50 in series [2] was found to be 81 µM. Moreover, the selectivity ratio in series [3] was determined as 1300.
With `COc1ccc2c(c1OC)CN1CCc3cc4c(cc3[C@@H]1C2)OCO4` [CANADINE], the IC50 in series [1] was found to be 8.7 µM. Also, in series [2], the CC50 was found to be 210 µM. In series [3], the selectivity ratio came out at 24.
In the same order, the values of `COc1ccc2c(c1OC)CN1CCc3cc4c(cc3C1=C2)OCO4` [DIHYDROBERBERINE] are 0.65 µM, 41 µM and 63.
`COc1ccc2cc3n(c(=O)c2c1OC)CCc1cc2c(cc1-3)OCO2` [OXYBERBERINE]: the IC50 in series [1] amounted to 12 µM. The CC50 in series [2] was determined as 97 µM. The selectivity ratio in series [3] was 8.
As for `COc1cc(Cc2cnc(N)nc2N)cc(OC)c1OC` [TRIMETHOPRIM], the IC50 in series [1] turned out to be 15 µM. The CC50 in series [2] is above 500 µM. Also, the selectivity ratio in series [3] was above 3.
